Bridge positions count the residues as written; N and C are the ends. Ends that are not written are not given here.
Experiments:
[1] = tested on: murine peritoneal macrophages; assay: Effect on murine peritoneal macrophages (NO, TNF-α, IL-10, survival); assay type: cell-based, CD1 mice; settings: 24 hours; for IL-10 / TNF-α: control 0; for NO: control 1.1; for Survival rate: control 100
Description: Murine peritoneal macrophages extracted from CD1 mice were used. A peritoneal flushing was carried out using 5 ml of PBS. After three washing processes with RPMI 1640 the cells were put into a 96-well culturing plate with a concentration of 1×10^6 cells/ml (200 μl/well) in 10% FCS-RPMI 1640 medium and kept for 24 hours. After the incubation the cells were washed three times with RPMI 1640 and resuspended in 10% FCS-RPMI 1640 medium (100 μl/well) in the absence (non stimulated) or in the presence (stimulated) of different stimulants. After 24 hours of incubation NO, IL-10 and TNF-α were measured in the culture supernatant.

[2] = tested on: Colon cancer cell line: Colo 205; assay: Living Colo 205 cells by MTT test; assay type: cell-based, homo sapiens; settings: 24 h
Description: After adherence of the cells (incubation 24 h, cell amount 1×10^4 cells per batch), the cells were treated for 24 h with MCS and/or peptides (Hellethionin C (CZT), Hellethionin D (DZT)) and afterwards the percentage of living cells was measured by MTT test.
The MTT cell growth test was carried out according to Alley et. al. (M. C. Alley et al., Proc. Am. Assoc. Cancer Res., 27:389, 1986; M. C. Alley et al., Cancer Res. 48:589-601, 1988). The finale concentration of 3-(4,5-dimethylthiazol-2-yl)-2,5-diphenyltetrazoliumbromide was 0.4 mg/ml.

[3] = tested on: lung carcinoma cell line: A549; assay: Living A549 cells by AlamarBlue test; assay type: cell-based, homo sapiens; settings: 100 μg/ml, after 72 h, FIG. 4
Description: Cell line: lung carcinoma cell line: A549 (ATCC No. CCL-185™), organism: homo sapiens, literature: Giard D J, et al. J. Natl. Cancer Inst. 51: 1417-1423, 1973.
After adherence of the cells (incubation 24 h, cell amount 5×10^3 cells per batch), the cells were treated for 72 h with MCS and/or peptides (CZT, DZT) and afterwards the percentage of living cells was measured by AlamarBlue test.
AlamarBlue™ cell growth test was carried out according to the specifications of the manufacturer (Serotec, Oxford, England, www.serotc.com).

[4] = tested on: primary human immune cells; assay: Effect on the cytokine production of primary human immune cells (Quantikine ELISA in lymphocyte cultures); assay type: cell-based; settings: for TGF-β2 concentration: control 9; for IL-4 concentration: control 34; for IL-3 concentration: control 41; for IL-2R concentration: control 44; for IL-10 concentration: control 69; for IL-6R concentration: control 171
Description: The effect of the peptide HT-A on the cytokine production of primary human immune cells was determined through the measurement of the concentration of cytokines in lymphocyte cultures obtained from human blood. Dosages of 4-200 μg/ml of the hellethionins were used, which were obtained by adding the calculated amounts in the form of a stock solution. The concentration of individual cytokines in the treated and control samples is determined by means of the commercially available “Quantikine” ELISA plates from R&D Biosystems, Minneapolis, USA. The results were compared with control samples, i.e. with the lymphocyte culture without addition of the peptide.
In the case of the lymphocyte cultures (4 million cells per ml) treated with 4 μg and 200 μg of the peptide HT-A, respectively, the following cytokine (and cytokine receptor) concentrations [pg/ml] were obtained in comparison with the control sample (without peptide): […]

human lymphocytes = settings: Büssing A. et al. 1999; cited from earlier work
[5] = mammals; cited from earlier work

## KSCCRNTLARNCYNACRFTGGSQPTCGILCDCIHVTTTTCPSSHPS (disulfide 3-40, 4-32, 12-30, 16-26) [HT-D, hellethionin-D]
[1]; 5 μg/ml
  IL-10: 0 pg/mL
  TNF-α: 18 pg/mL
  NO: 0.8 µM
  Survival rate: 87.6%
[1]; 100 μg/ml
  IL-10: 0 pg/mL
  TNF-α: 0 pg/mL
  NO: 1.3 µM
  Survival rate: 42.8%
[2]; 50 μg/ml
  Living Colo 205 cells: 92.15%
[2]; 100 μg/ml, listed as DZT
  Living Colo 205 cells: about 50%
[2]; 100 μg/ml, listed as DZT peptide
  Living Colo 205 cells: 58.66%
[3]
  living cells (A549): about 50%

## KSCCRNTLGRNCYNACRLTGTSQATCATLCDCIHVTATTCRPPYPS (disulfide 3-40, 4-32, 12-30, 16-26) [HT-C, hellethionin-C]
[1]; 5 μg/ml
  Survival rate: 80.3%
[1]; 100 μg/ml
  Survival rate: 10.7%

## hellethionin-A [HT-A]
[4]; 4 μg/ml peptide
  TGF-β2 concentration: 105 pg/mL
  IL-4 concentration: 19 pg/mL
  IL-3 concentration: 26 pg/mL
  IL-2R concentration: 30 pg/mL
  IL-10 concentration: 288 pg/mL
  IL-6R concentration: 100 pg/mL
[4]; 200 μg/ml peptide
  TGF-β2 concentration: 45 pg/mL
  IL-4 concentration: 12 pg/mL
  IL-3 concentration: 8 pg/mL
  IL-2R concentration: 67 pg/mL
  IL-10 concentration: 12 pg/mL
  IL-6R concentration: 65 pg/mL
[4]; 4 and 200 μg/ml
  expression of pro-inflammatory cytokines IL-2, IL-3, IL-4 and γ-IFN: inhibiting the expression
  influence on production of IL-6 or TNF-α and expression of the IL-1 receptor: no significant influence
[4]; more intense at 4 μg/ml than at 200 μg/ml
  effect on cytokines acting suppressively, IL-10 and TGF-β2: shows a stimulation

## purothionins
Human lymphocytes
  toxic effect on human lymphocytes: do not exert a toxic effect

## viscotoxins
[5]
  LD50: 0.1 to 1 mg/kg
Human lymphocytes
  toxic effect on human lymphocytes: toxic
